The record followed here is patent US20070117770A1, “Human ribosomal DNA (rDNA) and ribosomal RNA (rRNA) nucleic acids and uses thereof” (Cylene Pharmaceuticals, Inc., priority 2005, published 2007).

Holding throughout (test): Protein kinase inhibition assay
Common to all, as to type: biochemical

Assay [1] deals with CDK5/p35(h) (Homo sapiens, UniProt Q00535). The conditions noted are these: read-out: percent residual activity of CDK5/p35(h). On the procedure:
(§1) Certain compounds were tested for activity in protein kinase inhibition assays. All substrates were dissolved and diluted to working stocks in de-ionized water, apart from histone H1 (10× working stock in 20 mM MOPS pH 7.0), PDKtide (10× working stock in 50 mM Tris pH 7.0) ATF2 (which is typically stored at a 20× working stock in 50 mM Tris pH 7.5, 150 mM NaCl, 0.1 mM EGTA, 0.03% Brij-35, 50% glycerol, 1 mM benzamidine, 0.2 mM PMSF and 0.1% R-mercaptoethanol), KKLNRTLSFAEPG (SEQ ID NO:203) and RRRLSFAEPG (SEQ ID NO:204) (50 mM HEPES pH 7.4) and GGEEEEYFELVKKKK (SEQ ID NO:205) (20 mM MOPS pH 7.0). All kinases were pre-diluted to a 10× working concentration prior to addition into the assay. The composition of the dilution buffer for each kinase is detailed below.
(§2) In a final reaction volume of 25 μl, CDK5/p35 (h) (5-10 mU) is incubated with 8 mM MOPS pH 7.0, 0.2 mM EDTA, 0.1 mg/ml histone H1, 10 mM MgAcetate and [gamma-33P-ATP] (specific activity approx. 500 cpm/pmol, concentration as required). The reaction is initiated by the addition of the MgATP mix. After incubation for 40 minutes at room temperature, the reaction is stopped by the addition of 5 μl of a 3% phosphoric acid solution. 10 μl of the reaction is then spotted onto a P30 filtermat and washed three times for 5 minutes in 75 mM phosphoric acid and once in methanol prior to drying and scintillation counting.

The target of assay [2] is CHK1(h) (Homo sapiens, UniProt O14757). The following applies: read-out: percent residual activity of CHK1(h). Here is the method: as §1
CHK1(h), sequence (O14757 whole entry): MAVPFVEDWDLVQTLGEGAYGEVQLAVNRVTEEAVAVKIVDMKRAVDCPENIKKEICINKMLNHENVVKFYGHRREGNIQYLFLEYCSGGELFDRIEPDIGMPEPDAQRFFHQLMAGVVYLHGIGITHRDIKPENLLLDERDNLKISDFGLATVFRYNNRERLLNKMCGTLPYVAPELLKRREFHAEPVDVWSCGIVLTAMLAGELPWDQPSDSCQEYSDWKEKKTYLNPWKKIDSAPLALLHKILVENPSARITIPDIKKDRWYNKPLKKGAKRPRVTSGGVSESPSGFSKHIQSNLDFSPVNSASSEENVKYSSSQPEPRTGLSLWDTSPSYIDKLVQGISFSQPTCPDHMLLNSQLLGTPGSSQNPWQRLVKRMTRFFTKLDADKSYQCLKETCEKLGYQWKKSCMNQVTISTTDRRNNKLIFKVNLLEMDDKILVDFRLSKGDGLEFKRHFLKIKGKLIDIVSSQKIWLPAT
as §2, with “CHK1” for “CDK5/p35”, “200 μM […] (SEQ ID NO:213),” for “0.1 mg/ml histone H1,”

Assay [3] has as its target MKK6(h) (Homo sapiens, UniProt P52564). The conditions noted are these: read-out: percent residual activity of MKK6(h). On the procedure: as §1
The reaction is initiated by the addition of the MgATP. After incubation for 40 minutes at room temperature, 5 μl of this incubation mix is used to initiate a SAPK2a (h) assay, which is described on page 18 of this book.

The target of assay [4] is NEK7(h) (Homo sapiens, UniProt Q8TDX7). The conditions noted are these: read-out: percent residual activity of NEK7(h). On the procedure: as §1
NEK7(h), sequence (Q8TDX7 whole entry): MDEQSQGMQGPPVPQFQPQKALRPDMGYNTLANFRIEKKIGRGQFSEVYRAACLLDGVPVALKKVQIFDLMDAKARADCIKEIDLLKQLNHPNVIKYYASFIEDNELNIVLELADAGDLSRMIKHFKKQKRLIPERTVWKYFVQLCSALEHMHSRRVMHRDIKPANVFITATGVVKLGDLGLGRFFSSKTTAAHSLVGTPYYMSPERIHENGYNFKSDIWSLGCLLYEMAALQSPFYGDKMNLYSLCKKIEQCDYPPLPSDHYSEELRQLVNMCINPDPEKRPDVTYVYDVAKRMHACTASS
as §2, with “μl, NEK7” for “μl, CDK5/p35”, “EDTA, 300 μM FLAKSFGSPNRAYKK (SEQ ID NO:221),” for “EDTA, 0.1 mg/ml histone H1,”, “10 pi” for “10 μl”

Assay [5] deals with PKCμ(h) (Homo sapiens, UniProt Q15139). The conditions noted are these: read-out: percent residual activity of PKCμ(h). On the procedure: as §1
PKCμ(h), sequence (Q15139 whole entry): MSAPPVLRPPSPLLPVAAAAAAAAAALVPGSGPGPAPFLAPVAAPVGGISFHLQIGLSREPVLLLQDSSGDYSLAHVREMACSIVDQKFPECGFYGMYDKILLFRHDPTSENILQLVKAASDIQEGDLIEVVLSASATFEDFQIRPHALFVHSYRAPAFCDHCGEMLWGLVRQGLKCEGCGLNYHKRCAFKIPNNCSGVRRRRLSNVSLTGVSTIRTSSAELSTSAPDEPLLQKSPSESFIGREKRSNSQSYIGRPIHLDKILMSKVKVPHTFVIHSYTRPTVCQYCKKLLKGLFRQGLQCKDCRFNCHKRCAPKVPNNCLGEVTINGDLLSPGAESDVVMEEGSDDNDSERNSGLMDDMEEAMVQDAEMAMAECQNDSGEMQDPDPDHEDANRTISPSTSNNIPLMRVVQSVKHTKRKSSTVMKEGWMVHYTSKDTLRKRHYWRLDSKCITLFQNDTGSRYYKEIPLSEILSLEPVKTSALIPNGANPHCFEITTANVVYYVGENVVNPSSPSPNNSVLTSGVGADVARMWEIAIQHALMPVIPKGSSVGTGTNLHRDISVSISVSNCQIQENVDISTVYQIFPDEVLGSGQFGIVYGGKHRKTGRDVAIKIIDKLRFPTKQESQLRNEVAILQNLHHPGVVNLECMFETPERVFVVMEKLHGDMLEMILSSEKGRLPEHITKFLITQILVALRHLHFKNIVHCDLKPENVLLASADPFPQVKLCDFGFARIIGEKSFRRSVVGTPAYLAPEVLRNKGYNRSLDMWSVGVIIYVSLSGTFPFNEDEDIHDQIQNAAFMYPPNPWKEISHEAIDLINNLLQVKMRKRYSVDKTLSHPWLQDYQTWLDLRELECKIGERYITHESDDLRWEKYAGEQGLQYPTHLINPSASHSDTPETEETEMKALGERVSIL
as §2, with “PKCμ” for “CDK5/p35”, “20” for “8”, “REPES” for “MOPS”, “7.4, 0.03% Triton X-100, 30 μM KKLNRTLSVA (SEQ ID NO:212),” for “7.0, 0.2 mM EDTA, 0.1 mg/ml histone H1,”

The target in assay [6] is ROCK-I(h) (Homo sapiens, UniProt Q13464). The conditions noted are these: read-out: percent residual activity of ROCK-I(h). On the procedure:
as §1
as §2, with “ROCK-I” for “CDK5/p35”, “30 μM […] (SEQ ID NO:222),” for “0.1 mg/ml histone H1,”

For assay [7], the target named is TBK1(h) (Homo sapiens, UniProt Q9UHD2). The following applies: read-out: percent residual activity of TBK1(h). Here is the method: as §1
TBK1(h), sequence (Q9UHD2 whole entry): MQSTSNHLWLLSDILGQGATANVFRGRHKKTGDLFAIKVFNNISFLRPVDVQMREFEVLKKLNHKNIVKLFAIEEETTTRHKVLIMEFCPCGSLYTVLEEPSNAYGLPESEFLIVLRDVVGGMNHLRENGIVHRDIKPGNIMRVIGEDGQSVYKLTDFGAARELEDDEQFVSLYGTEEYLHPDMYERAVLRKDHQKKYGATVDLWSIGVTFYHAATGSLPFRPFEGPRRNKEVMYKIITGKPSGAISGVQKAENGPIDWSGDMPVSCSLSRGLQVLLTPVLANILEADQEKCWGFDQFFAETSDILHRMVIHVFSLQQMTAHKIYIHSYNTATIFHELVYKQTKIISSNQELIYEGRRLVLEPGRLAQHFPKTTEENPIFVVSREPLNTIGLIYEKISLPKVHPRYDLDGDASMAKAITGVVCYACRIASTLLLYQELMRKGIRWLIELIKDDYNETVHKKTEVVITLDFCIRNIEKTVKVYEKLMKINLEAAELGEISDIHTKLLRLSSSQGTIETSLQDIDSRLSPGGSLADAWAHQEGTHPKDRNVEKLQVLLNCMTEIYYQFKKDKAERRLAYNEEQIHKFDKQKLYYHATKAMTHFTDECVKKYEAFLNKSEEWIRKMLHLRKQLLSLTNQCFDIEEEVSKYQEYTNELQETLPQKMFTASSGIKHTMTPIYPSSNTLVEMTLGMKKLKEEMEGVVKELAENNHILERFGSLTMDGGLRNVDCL
as §2, with “TBK1” for “CDK5/p35”, “200 μM KRRRALS(p)VASLPGL (SEQ ID NO:214),” for “0.1 mg/ml histone H1,”

MKK6(h), sequence (P52564 whole entry): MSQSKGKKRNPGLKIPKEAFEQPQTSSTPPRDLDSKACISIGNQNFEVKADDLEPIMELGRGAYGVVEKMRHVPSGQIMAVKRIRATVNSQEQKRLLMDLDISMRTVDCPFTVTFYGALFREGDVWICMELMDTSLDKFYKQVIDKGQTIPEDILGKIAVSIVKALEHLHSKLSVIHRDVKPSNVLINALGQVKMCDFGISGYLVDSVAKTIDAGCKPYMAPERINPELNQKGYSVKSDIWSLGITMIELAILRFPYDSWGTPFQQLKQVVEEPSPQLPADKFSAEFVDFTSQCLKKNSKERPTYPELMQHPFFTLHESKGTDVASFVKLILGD
CDK5/p35(h), sequence (Q00535 whole entry): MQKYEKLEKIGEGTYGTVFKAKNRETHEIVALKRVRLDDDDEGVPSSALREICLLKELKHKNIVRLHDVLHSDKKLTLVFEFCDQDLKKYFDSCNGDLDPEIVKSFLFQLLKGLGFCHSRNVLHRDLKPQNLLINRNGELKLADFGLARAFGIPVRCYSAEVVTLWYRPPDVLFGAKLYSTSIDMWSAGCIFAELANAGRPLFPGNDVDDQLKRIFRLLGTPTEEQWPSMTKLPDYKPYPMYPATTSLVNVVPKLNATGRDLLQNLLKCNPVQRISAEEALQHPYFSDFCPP
CDK5/p35(h), sequence (Q15078 whole entry partner): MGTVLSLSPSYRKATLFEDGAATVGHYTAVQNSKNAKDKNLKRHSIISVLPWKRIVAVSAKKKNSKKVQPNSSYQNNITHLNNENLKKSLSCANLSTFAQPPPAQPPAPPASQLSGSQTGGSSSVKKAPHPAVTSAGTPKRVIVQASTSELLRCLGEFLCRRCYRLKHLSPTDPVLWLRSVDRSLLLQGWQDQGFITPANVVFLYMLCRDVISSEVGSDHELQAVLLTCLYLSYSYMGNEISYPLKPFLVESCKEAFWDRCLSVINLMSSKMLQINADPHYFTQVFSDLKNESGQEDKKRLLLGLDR
ROCK-I(h), sequence (Q13464 whole entry): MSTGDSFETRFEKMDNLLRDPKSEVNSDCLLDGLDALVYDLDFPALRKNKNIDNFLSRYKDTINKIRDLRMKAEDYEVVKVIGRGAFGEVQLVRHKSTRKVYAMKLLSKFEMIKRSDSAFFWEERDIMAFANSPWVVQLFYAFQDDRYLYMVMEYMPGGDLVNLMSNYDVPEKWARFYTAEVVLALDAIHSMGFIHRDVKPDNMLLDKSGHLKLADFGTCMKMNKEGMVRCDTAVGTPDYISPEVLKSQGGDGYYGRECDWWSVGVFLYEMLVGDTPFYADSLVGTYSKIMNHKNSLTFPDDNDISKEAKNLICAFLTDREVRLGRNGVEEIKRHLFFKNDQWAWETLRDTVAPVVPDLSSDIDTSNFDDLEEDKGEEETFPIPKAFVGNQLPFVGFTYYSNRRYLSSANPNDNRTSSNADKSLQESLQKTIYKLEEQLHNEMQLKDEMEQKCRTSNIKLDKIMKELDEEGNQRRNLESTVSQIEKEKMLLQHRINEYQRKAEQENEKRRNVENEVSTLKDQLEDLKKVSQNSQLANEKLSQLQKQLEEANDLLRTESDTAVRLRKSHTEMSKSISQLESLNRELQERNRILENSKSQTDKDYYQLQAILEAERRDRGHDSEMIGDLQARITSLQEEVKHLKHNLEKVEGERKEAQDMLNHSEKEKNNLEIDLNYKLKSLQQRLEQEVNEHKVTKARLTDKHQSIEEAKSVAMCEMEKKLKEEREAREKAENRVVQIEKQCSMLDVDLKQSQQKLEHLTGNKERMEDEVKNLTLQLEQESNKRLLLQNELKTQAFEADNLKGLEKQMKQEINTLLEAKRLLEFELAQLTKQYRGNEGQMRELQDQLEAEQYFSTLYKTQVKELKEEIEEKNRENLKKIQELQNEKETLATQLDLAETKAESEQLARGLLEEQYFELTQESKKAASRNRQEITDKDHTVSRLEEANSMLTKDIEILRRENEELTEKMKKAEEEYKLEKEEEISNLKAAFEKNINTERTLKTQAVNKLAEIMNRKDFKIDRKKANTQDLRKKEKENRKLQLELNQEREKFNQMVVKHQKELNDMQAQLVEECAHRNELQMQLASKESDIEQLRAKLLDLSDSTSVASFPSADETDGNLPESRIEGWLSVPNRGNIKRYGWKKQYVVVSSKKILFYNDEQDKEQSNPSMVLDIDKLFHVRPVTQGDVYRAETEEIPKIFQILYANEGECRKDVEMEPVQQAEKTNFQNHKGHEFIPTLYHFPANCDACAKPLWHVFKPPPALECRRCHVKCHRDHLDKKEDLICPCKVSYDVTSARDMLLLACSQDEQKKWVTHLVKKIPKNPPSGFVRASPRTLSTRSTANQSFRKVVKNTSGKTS

On to `CN1CCCC1CCNC(=O)c1cn2c3c(c(N4CCC(c5cnccn5)C4)c(F)cc3c1=O)Oc1cc3ccccc3cc1-2` (centres unmarked) [Compound A-1], for which the remaining activity at 2.5 µM was determined as 83% in assay [1]; 95% in assay [2]; 100% in assay [3]; 102% in assay [4]; 49% in assay [5]; 91% in assay [6]. Besides, in assay [7], the remaining activity at 2.5 µM amounted to 71%.

Take `CC(=O)N1CCN(c2ccc3c(=O)c(C(=O)NCCN4CCCC4)c4n(C)c5ccccc5n4c3n2)CC1` [Compound B-1]: the remaining activity at 2.5 µM was 104% in assay [1]; 106% in assay [2]; 90% in assay [3]; 101% in assay [4]; 94% in assay [5]; 101% in assay [6]. Also, the remaining activity at 2.5 µM in assay [7] is 114%.
